The source of these data is patent US12036312B2, “Non-aqueous topical compositions comprising a halogenated salicylanilide” (priority 2016, dated 2024).

In brackets after ≈: the same amount, converted by molar mass.

The test system of one data set is P. aeruginosa. Particulars: Imperi et al. 2013, cited from earlier work.
The next data set relates to MRSA 01. Nature of the data set: Effect of pH on the antibacterial activity (MIC in pH-adjusted Mueller-Hinton Broth). The class given is cell-based, Staphylococcus aureus. Particulars: for MIC: Staphylococcus aureus, MRSA. As for the experimental part: Chosen for its relevance regarding bacterial skin infections, the methicillin-resistant S. aureus (MRSA) 01 strain was used. This strain is a community-acquired MRSA clinical isolate of USA 300 type, from a skin abscess.
This strain was conserved in Luria Bertani (LB) Broth supplemented with glycerol 15% (v/v) at −80° C., and reactivated by isolation on LB agar plates. It was then cultivated aerobically in Mueller Hinton (MH) Broth-cation adjusted at 37° C.
The pH of Mueller-Hinton Broth cation-adjusted was adjusted with HCl 2M to 7, 6.5, 6, 5.5, 5, 4.5 and […]. Ten ml of medium for each pH were prepared. The pH of non-adjusted MHBII was equal to 7.4.
Each pH-adjusted samples were filtered on 0.2 μm filters before being used for the MIC determination assay.
Bacterial culture was stopped in its exponential growth phase and plates were inoculated with the approximate concentration of 5×10^5 cells per well. Plates were incubated at 37° C. for 18 hours (S. aureus). Optical density at a wavelength of 600 nm was measured at the end of the incubation time.
The experiment was performed in triple biological replicates.

Data set [1] can be described thus: Mini-pig PK: niclosamide concentration in plasma. The class given is in vivo, Göttingen SPF mini-pigs. Conditions: mini-pigs, day 28, dermal application of the formulations. As for the experimental part:
The study was performed in 3 male and 3 female Göttingen SPF mini-pigs from Ellegaard Göttingen Mini-pigs A/S, DK-4261 Dalmose, Denmark. At the start of the acclimatization period, the animals were approximately 6 months old and the body weight was 12.1 to 13.4 kg. An acclimatization period of at least 1 week was allowed, during which the animals were observed daily.
All test fields were semi-occluded with Mefix® (Mölnlycke Health Care, Sweden), allowing the sites to “breathe” while keeping the test substance in place. The Mefix® was kept in place with adhesive tape (Tensoplast, BSN medical, Germany) for 6 hours±30 minutes after application to ensure that the compounds were absorbed into the skin.

In the case of `O=C(Nc1ccc([N+](=O)[O-])cc1Cl)c1cc(Cl)ccc1O` [Niclosamide, niclosamide], the “effect on growth of P. aeruginosa” value in the data set with P. aeruginosa is given as “does not affect the growth of P. aeruginosa”. For the same molecule, the “concentration at which some inhibition was detected (quorum sensing)” value in the data set on P. aeruginosa (P. aeruginosa) was 1 µM. Moreover, the “concentration required for optimal activity (quorum sensing)” value with P. aeruginosa (P. aeruginosa) was 20 µM. Moreover, the MIC (in general, the lowest concentration that inhibits growth of the organism) came to 0.125 µg/mL (≈ 0.382 µM) against MRSA 01 (MRSA 01, pH 7.0 (actual pH 7.071), Replicate 2); 0.5 µg/mL (≈ 1.53 µM) against MRSA 01 (pH 7.4, MRSA 01, pH not adjusted (actual pH 7.4), Replicate 1); 0.5 µg/mL (≈ 1.53 µM) with MRSA 01 (pH 7.4, MRSA 01, pH not adjusted (actual pH 7.4), Replicate 3). The “inhibitory activity against MRSA 01 as a function of pH” value with MRSA 01 (pH-adjusted Mueller-Hinton Broth) is reported as “increased when pH was decreased”. Further, the “concentration in the plasma” value in data set [1] is “less than 0.651 ng/mL”.
